{
  "source": "patent US11078170B2",
  "about": "(Assembly Biosciences, Inc., priority 2017, dated 2021)",
  "note": "pEC50: −log10 of the molar value.",
  "data": [
    {"tested_on": "HBV viral production from HepAD38 cells", "assay": "Activity of test compounds on viral production from HepAD38 cells (viral load by qPCR of HBV core sequence in supernatant)", "format": "cell-based", "conditions": "Hepatitis B virus, 120 h, 5 days incubation, HBV DNA in supernatant by qPCR, top concentration 10 μM, read-out: Viral Load EC50 Activity range", "in_short": "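HepAD38 cells, 50,000/well in tetracycline-free 2% FBS medium, treated 5 days at 37° C. with compound from 10 μM top concentration. HBV DNA in supernatant quantified by TaqMan qPCR of core sequence against DNA standards, relative to DMSO wells; CellTiter-Glo viability read in parallel. EC50/CC50 from four-parameter logistic fit.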", "values": [
      {"compound": "[2H]C1[C@]([2H])(C(=O)Nc2ccc(F)c(Cl)c2)N(C([2H])([2H])[2H])S(=O)(=O)N[C@]1([2H])c1ncc(-c2cn(C)cn2)s1", "note": "(stereo in doubt) [HBV-CSU-340-ISO-II, Cis-N-(3-Chloro-4-fluorophenyl)-2-(methyl-d3)-5-(5-(1-methyl-1H-imidazol-4-yl)thiazol-2-yl)-1,2,6-thiadiazinane-3,4,5-d3-3-carboxamide 1,1-dioxide]", "pEC50": "5.30 to 6.00"},
      {"compound": "[2H]C1[C@]([2H])(c2ncc(-c3cn(C([2H])([2H])[2H])cn3)s2)NS(=O)(=O)N(C)[C@]1([2H])C(=O)Nc1ccc(F)c(Cl)c1", "note": "(stereo in doubt) [HBV-CSU-341-ISO-I, Cis-N-(3-Chloro-4-fluorophenyl)-2-methyl-5-(5-(1-(methyl-d3)-1H-imidazol-4-yl)thiazol-2-yl)-1,2,6-thiadiazinane-3,4,5-d3-3-carboxamide 1,1-dioxide]", "pEC50": "> 6.00"},
      {"compound": "[2H]C1[C@]([2H])(C(=O)Nc2ccc(F)c(Cl)c2)N(C)S(=O)(=O)N[C@]1([2H])c1ncc(-c2cn(C([2H])([2H])[2H])cn2)s1", "note": "(stereo in doubt) [HBV-CSU-341-ISO-II, Cis-N-(3-Chloro-4-fluorophenyl)-2-methyl-5-(5-(1-(methyl-d3)-1H-imidazol-4-yl)thiazol-2-yl)-1,2,6-thiadiazinane-3,4,5-d3-3-carboxamide 1,1-dioxide]", "pEC50": "5.30 to 6.00"},
      {"compound": "[2H]C1[C@]([2H])(c2ccc(Br)s2)NS(=O)(=O)N(C)[C@]1([2H])C(=O)Nc1ccc(F)c(Cl)c1", "note": "(stereo in doubt) [HBV-CSU-371-ISO-I, Cis-5-(5-Bromothiophen-2-yl)-N-(3-chloro-4-fluorophenyl)-2-methyl-1,2,6-thiadiazinane-3,4,5-d3-3-carboxamide 1,1-dioxide]", "pEC50": "> 6.00"},
      {"compound": "[2H]C1[C@]([2H])(C(=O)Nc2ccc(F)c(Cl)c2)N(C)S(=O)(=O)N[C@]1([2H])c1ccc(Br)s1", "note": "(stereo in doubt) [HBV-CSU-371-ISO-II, Cis-5-(5-Bromothiophen-2-yl)-N-(3-chloro-4-fluorophenyl)-2-methyl-1,2,6-thiadiazinane-3,4,5-d3-3-carboxamide 1,1-dioxide]", "pEC50": "5.30 to 6.00"},
      {"compound": "[2H]C1[C@]([2H])(c2ccc(Br)s2)NS(=O)(=O)N(C([2H])([2H])[2H])[C@]1([2H])C(=O)Nc1ccc(F)c(Cl)c1", "note": "(stereo in doubt) [HBV-CSU-372-ISO-I, Cis-5-(5-bromothiophen-2-yl)-N-(3-chloro-4-fluorophenyl)-2-(methyl-d3)-1,2,6-thiadiazinane-3,4,5-d3-3-carboxamide 1,1-dioxide]", "pEC50": "> 6.00"},
      {"compound": "[2H]C1[C@]([2H])(C(=O)Nc2ccc(F)c(Cl)c2)N(C([2H])([2H])[2H])S(=O)(=O)N[C@]1([2H])c1ccc(Br)s1", "note": "(stereo in doubt) [HBV-CSU-372-ISO-II, Cis-5-(5-bromothiophen-2-yl)-N-(3-chloro-4-fluorophenyl)-2-(methyl-d3)-1,2,6-thiadiazinane-3,4,5-d3-3-carboxamide 1,1-dioxide]", "pEC50": "5.30 to 6.00"},
      {"compound": "[2H]C([2H])([2H])N1[C@@H](C(=O)Nc2ccc(F)c(Cl)c2)CC(c2ccc(-c3cn(C)cn3)s2)NS1(=O)=O", "note": "(stereo in doubt) [HBV-CSU-373-ISO-II, Cis-N-(3-Chloro-4-fluorophenyl)-2-(methyl-d3)-5-(5-(1-methyl-1H-imidazol-4-yl)thiophen-2-yl)-1,2,6-thiadiazinane-3-carboxamide 1,1-dioxide]", "pEC50": "> 6.00"},
      {"compound": "[2H]C([2H])([2H])N1[C@H](C(=O)Nc2ccc(F)c(Cl)c2)C[C@H](c2ccc(-c3cn(C([2H])([2H])[2H])cn3)s2)NS1(=O)=O", "note": "(stereo in doubt) [HBV-CSU-374-ISO-I, Cis-N-(3-Chloro-4-fluorophenyl)-2-(methyl-d3)-5-(5-(1-(methyl-d3)-1H-imidazol-4-yl)thiophen-2-yl)-1,2,6-thiadiazinane-3-carboxamide 1,1-dioxide]", "pEC50": "> 6.00"},
      {"compound": "[2H]C([2H])([2H])N1[C@@H](C(=O)Nc2ccc(F)c(Cl)c2)C[C@@H](c2ccc(-c3cn(C([2H])([2H])[2H])cn3)s2)NS1(=O)=O", "note": "(stereo in doubt) [HBV-CSU-374-ISO-II, Cis-N-(3-Chloro-4-fluorophenyl)-2-(methyl-d3)-5-(5-(1-(methyl-d3)-1H-imidazol-4-yl)thiophen-2-yl)-1,2,6-thiadiazinane-3-carboxamide 1,1-dioxide]", "pEC50": "> 6.00"},
      {"compound": "[2H]C1[C@]([2H])(c2ccc(-c3cn(C)cn3)s2)NS(=O)(=O)N(C)[C@]1([2H])C(=O)Nc1ccc(F)c(Cl)c1", "note": "(stereo in doubt) [HBV-CSU-375-ISO-I, Cis-N-(3-Chloro-4-fluorophenyl)-2-methyl-5-(5-(1-methyl-1H-imidazol-4-yl)thiophen-2-yl)-1,2,6-thiadiazinane-3,4,5-d3-3-carboxamide 1,1-dioxide]", "pEC50": "> 6.00"},
      {"compound": "[2H]C1[C@]([2H])(C(=O)Nc2ccc(F)c(Cl)c2)N(C)S(=O)(=O)N[C@]1([2H])c1ccc(-c2cn(C)cn2)s1", "note": "(stereo in doubt) [HBV-CSU-375-ISO-II, Cis-N-(3-Chloro-4-fluorophenyl)-2-methyl-5-(5-(1-methyl-1H-imidazol-4-yl)thiophen-2-yl)-1,2,6-thiadiazinane-3,4,5-d3-3-carboxamide 1,1-dioxide]", "pEC50": "5.30 to 6.00"},
      {"compound": "[2H]C1[C@]([2H])(c2ccc(-c3cn(C([2H])([2H])[2H])cn3)s2)NS(=O)(=O)N(C)[C@]1([2H])C(=O)Nc1ccc(F)c(Cl)c1", "note": "(stereo in doubt) [HBV-CSU-376-ISO-I, Cis-N-(3-Chloro-4-fluorophenyl)-2-methyl-5-(5-(1-(methyl-d3)-1H-imidazol-4-yl)thiophen-2-yl)-1,2,6-thiadiazinane-3,4,5-d3-3-carboxamide 1,1-dioxide]", "pEC50": "> 6.00"},
      {"compound": "[2H]C1[C@]([2H])(C(=O)Nc2ccc(F)c(Cl)c2)N(C)S(=O)(=O)N[C@]1([2H])c1ccc(-c2cn(C([2H])([2H])[2H])cn2)s1", "note": "(stereo in doubt) [HBV-CSU-376-ISO-II, Cis-N-(3-Chloro-4-fluorophenyl)-2-methyl-5-(5-(1-(methyl-d3)-1H-imidazol-4-yl)thiophen-2-yl)-1,2,6-thiadiazinane-3,4,5-d3-3-carboxamide 1,1-dioxide]", "pEC50": "5.30 to 6.00"},
      {"compound": "[2H]C1[C@]([2H])(c2ccc(-c3cn(C([2H])([2H])[2H])cn3)s2)NS(=O)(=O)N(C([2H])([2H])[2H])[C@]1([2H])C(=O)Nc1ccc(F)c(Cl)c1", "note": "(stereo in doubt) [HBV-CSU-378-ISO-I, Cis-N-(3-chloro-4-fluorophenyl)-2-(methyl-d3)-5-(5-(1-(methyl-d3)-1H-imidazol-4-yl)thiophen-2-yl)-1,2,6-thiadiazinane-3,4,5-d3-3-carboxamide 1,1-dioxide]", "pEC50": "> 6.00"},
      {"compound": "[2H]C1[C@]([2H])(C(=O)Nc2ccc(F)c(Cl)c2)N(C([2H])([2H])[2H])S(=O)(=O)N[C@]1([2H])c1ccc(-c2cn(C([2H])([2H])[2H])cn2)s1", "note": "(stereo in doubt) [HBV-CSU-378-ISO-II, Cis-N-(3-chloro-4-fluorophenyl)-2-(methyl-d3)-5-(5-(1-(methyl-d3)-1H-imidazol-4-yl)thiophen-2-yl)-1,2,6-thiadiazinane-3,4,5-d3-3-carboxamide 1,1-dioxide]", "pEC50": "5.30 to 6.00"},
      {"compound": "[2H]C1[C@]([2H])(c2ccc(-c3cnn(C([2H])([2H])[2H])c3)s2)NS(=O)(=O)N(C([2H])([2H])[2H])[C@]1([2H])C(=O)Nc1ccc(F)c(Cl)c1", "note": "(stereo in doubt) [HBV-CSU-379-ISO-I, Cis-N-(3-Chloro-4-fluorophenyl)-2-(methyl-d3)-5-(5-(1-(methyl-d3)-1H-pyrazol-4-yl)thiophen-2-yl)-1,2,6-thiadiazinane-3,4,5-d3-3-carboxamide 1,1-dioxide]", "pEC50": "> 6.00"},
      {"compound": "[2H]C1[C@]([2H])(C(=O)Nc2ccc(F)c(Cl)c2)N(C([2H])([2H])[2H])S(=O)(=O)N[C@]1([2H])c1ccc(-c2cnn(C([2H])([2H])[2H])c2)s1", "note": "(stereo in doubt) [HBV-CSU-379-ISO-II, Cis-N-(3-Chloro-4-fluorophenyl)-2-(methyl-d3)-5-(5-(1-(methyl-d3)-1H-pyrazol-4-yl)thiophen-2-yl)-1,2,6-thiadiazinane-3,4,5-d3-3-carboxamide 1,1-dioxide]", "pEC50": "> 6.00"},
      {"compound": "CN1C(C(=O)Nc2ccccc2)CC(c2cccs2)NS1(=O)=O", "note": "(stereo not drawn) [HBV-CSU-006, Cis-2-Methyl-N-phenyl-5-(thiophen-2-yl)-1,2,6-thiadiazinane-3-carboxamide 1,1-dioxide]", "pEC50": "> 6.00"},
      {"compound": "CN1[C@H](C(=O)Nc2cccc(Cl)c2)C[C@H](c2cccs2)NS1(=O)=O", "note": "[HBV-CSU-010-ISO-I, Cis-N-(3-chlorophenyl)-2-methyl-5-(thiophen-2-yl)-1,2,6-thiadiazinane-3-carboxamide 1,1-dioxide]", "pEC50": "> 6.00"},
      {"compound": "CN1C(C(=O)Nc2ccc(F)c(F)c2)CC(c2cccs2)NS1(=O)=O", "note": "(stereo not drawn) [HBV-CSU-011, Cis-N-(3,4-difluorophenyl)-2-methyl-5-(thiophen-2-yl)-1,2,6-thiadiazinane-3-carboxamide 1,1-dioxide]", "pEC50": "> 6.00"},
      {"compound": "CN1C(C(=O)Nc2cccc(C(F)(F)F)c2)CC(c2cccs2)NS1(=O)=O", "note": "(stereo not drawn) [HBV-CSU-012, Cis-2-Methyl-5-(thiophen-2-yl)-N-(3-(trifluoromethyl)phenyl)-1,2,6-thiadiazinane-3-carboxamide 1,1-dioxide]", "pEC50": "5.30 to 6.00"},
      {"compound": "CN1C(C(=O)Nc2ccc(Cl)cc2)CC(c2cccs2)NS1(=O)=O", "note": "(stereo not drawn) [HBV-CSU-014, Cis-N-(4-chlorophenyl)-2-methyl-5-(thiophen-2-yl)-1,2,6-thiadiazinane-3-carboxamide 1,1-dioxide]", "pEC50": "5.30 to 6.00"},
      {"compound": "CN(C(=O)C1CC(c2cccs2)NS(=O)(=O)N1C)c1ccc(F)c(Cl)c1", "note": "(stereo not drawn) [HBV-CSU-015, Cis-N-(3-Chloro-4-fluorophenyl)-N-2-dimethyl-5-(thiophen-2-yl)-1,2,6-thiadiazinane-3-carboxamide 1,1-dioxide]", "pEC50": "5.30 to 6.00"},
      {"compound": "CN1[C@H](C(=O)Nc2ccc(F)c(Br)c2)C[C@H](c2cccs2)NS1(=O)=O", "note": "[HBV-CSU-016-ISO-I, Cis-N-(3-Bromo-4-fluorophenyl)-2-methyl-5-(thiophen-2-yl)-1,2,6-thiadiazinane-3-carboxamide 1,1-dioxide]", "pEC50": "> 6.00"}
    ]}
  ]
}
